This note sets out measurements from ChEMBL document CHEMBL4334471, “Discovery of 1,8-disubstituted-[1,2,3]triazolo[4,5-c]quinoline derivatives as a new class of Hippo signaling pathway inhibitors” (Bioorg Med Chem Lett, 2019).

Structures are written as SMILES.

The target of experiment [1] is Protein kinase C beta type (Homo sapiens) (UniProt P05771). Kind of experiment: Inhibition of recombinant human PKCbeta1 (2 to end residues) assessed as residual activity at 10 uM using histone H1 as substrate incubated for 40 mins in presence of [gamma33P]ATP by scintillation counting based radiometry assay relative to control.
Protein kinase C beta type (Homo sapiens), sequence (P05771 2-671 limits assumed): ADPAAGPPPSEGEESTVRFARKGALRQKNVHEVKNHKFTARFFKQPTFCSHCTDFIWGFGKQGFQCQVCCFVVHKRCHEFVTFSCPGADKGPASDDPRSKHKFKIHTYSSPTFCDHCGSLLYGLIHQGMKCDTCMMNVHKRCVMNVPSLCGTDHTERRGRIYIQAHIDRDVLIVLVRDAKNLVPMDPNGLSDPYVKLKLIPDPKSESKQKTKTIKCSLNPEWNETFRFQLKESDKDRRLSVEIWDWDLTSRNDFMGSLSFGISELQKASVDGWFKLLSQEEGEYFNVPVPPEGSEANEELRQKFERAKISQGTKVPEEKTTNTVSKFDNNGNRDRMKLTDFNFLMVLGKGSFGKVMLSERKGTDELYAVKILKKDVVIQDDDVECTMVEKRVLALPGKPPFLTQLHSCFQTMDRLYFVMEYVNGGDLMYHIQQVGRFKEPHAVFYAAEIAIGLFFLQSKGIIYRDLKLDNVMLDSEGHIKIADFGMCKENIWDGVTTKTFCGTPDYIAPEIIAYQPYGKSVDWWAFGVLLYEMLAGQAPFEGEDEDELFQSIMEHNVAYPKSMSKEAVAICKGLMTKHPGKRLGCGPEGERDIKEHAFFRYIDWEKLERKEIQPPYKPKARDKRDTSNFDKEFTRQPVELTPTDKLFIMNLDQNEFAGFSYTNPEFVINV
Experiment [2] addresses 3-phosphoinositide-dependent protein kinase 1 (Homo sapiens) (UniProt O15530). Description: Inhibition of recombinant human PDK1 (52 to end residues) assessed as residual activity at 10 uM using PDKtide as substrate incubated for 40 mins in presence of [gamma33P]ATP by scintillation counting based radiometry assay relative to control.
Experiment [3] addresses Tyrosine-protein kinase Fyn (Homo sapiens) (UniProt P06241). Kind of experiment: Inhibition of recombinant full length human Fyn assessed as residual activity at 10 uM using KVEKIGEGTYGVV as substrate at 40 mins in presence of [gamma-33ATP] by scintillation counting based radiometry assay relative to control.
Experiment [4] concerns the target Mitogen-activated protein kinase 1 (Homo sapiens) (UniProt P28482). Kind of experiment: Inhibition of recombinant full length human MAPK1 assessed as residual activity at 10 uM using myelin basic protein as substrate incubated for 40 mins in presence of [gamma-33ATP by scintillation counting based radiometry assay relative to control.
Experiment [5] has as its target Mitogen-activated protein kinase kinase kinase kinase 4 (Homo sapiens) (UniProt O95819). Kind of experiment: Inhibition of recombinant human MAP4K4 (1 to 328 residues) assessed as residual activity at 10 uM using RLGRDKYKTLRQI as substrate incubated for 40 mins in presence of [gamma-33ATP by scintillation counting based radiometry assay relative to control.
For experiment [6], the target named is Ephrin type-A receptor 7 (Homo sapiens) (UniProt Q15375). Description: Inhibition of recombinant human EphA7 (613 to 909 residues) assessed as residual activity at 10 uM using KTFCGTPEYLAPEVRREPRILSEEEQEMFRDFDYIADWC as substrate at 40 mins in presence of [gamma-33ATP] by scintillation counting based radiometry assay relative to control.
The target in experiment [7] is Ribosomal protein S6 kinase alpha-3 (Homo sapiens) (UniProt P51812). Description: Inhibition of recombinant human Rsk2 (2 to end residues) assessed as residual activity at 10 uM using KKKNRTLSVA as substrate incubated for 40 mins in presence of [gamma33P]ATP by scintillation counting based radiometry assay relative to control.
Experiment [8] deals with Serine/threonine-protein kinase haspin (Homo sapiens) (UniProt Q8TF76). Description: Inhibition of human Haspin (471 to end residues ) assessed as residual activity at 10 uM using RARTLSFAEPG as substrate after 40 mins by [gamma-33ATP] radiometric assay relative to control.
Serine/threonine-protein kinase haspin (Homo sapiens), sequence (Q8TF76 whole entry): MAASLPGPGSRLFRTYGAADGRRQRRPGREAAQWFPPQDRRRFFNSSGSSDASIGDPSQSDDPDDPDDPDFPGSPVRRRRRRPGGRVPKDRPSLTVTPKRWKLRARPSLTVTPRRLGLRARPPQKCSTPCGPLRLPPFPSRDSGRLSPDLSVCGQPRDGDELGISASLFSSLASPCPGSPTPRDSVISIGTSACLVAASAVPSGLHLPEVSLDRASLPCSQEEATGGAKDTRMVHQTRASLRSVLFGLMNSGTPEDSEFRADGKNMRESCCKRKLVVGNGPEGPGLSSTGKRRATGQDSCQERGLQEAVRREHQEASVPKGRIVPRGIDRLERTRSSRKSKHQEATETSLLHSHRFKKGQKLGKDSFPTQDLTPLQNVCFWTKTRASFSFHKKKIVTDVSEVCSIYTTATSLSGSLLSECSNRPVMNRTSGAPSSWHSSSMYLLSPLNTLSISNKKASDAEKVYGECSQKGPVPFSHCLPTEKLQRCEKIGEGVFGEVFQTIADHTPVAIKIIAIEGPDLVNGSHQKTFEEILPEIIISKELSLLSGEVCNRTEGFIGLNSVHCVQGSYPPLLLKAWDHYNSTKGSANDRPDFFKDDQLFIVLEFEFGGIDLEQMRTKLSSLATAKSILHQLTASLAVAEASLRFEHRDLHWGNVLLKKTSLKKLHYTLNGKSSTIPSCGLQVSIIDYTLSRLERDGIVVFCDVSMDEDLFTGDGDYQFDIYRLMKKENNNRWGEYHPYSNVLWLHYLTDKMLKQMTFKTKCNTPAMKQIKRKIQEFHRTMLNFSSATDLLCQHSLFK
The target of experiment [9] is Dual specificity mitogen-activated protein kinase kinase 3 (Homo sapiens) (UniProt P46734). Kind of experiment: Inhibition of recombinant human MKK3 assessed as residual activity at 10 uM by scintillation counting based radiometry assay relative to control.
The target in experiment [10] is BMP-2-inducible protein kinase (Homo sapiens) (UniProt Q9NSY1). Kind of experiment: Inhibition of recombinant human BIKe assessed as residual activity at 10 uM using peptide as substrate incubated for 120 mins in presence of [gamma-33ATP] by scintillation counting based radiometry assay relative to control.
The target of experiment [11] is Mitogen-activated protein kinase 9 (Homo sapiens) (UniProt P45984). Description: Inhibition of human JNK2alpha2 assessed as residual activity at 10 uM using ATF2 as substrate after 40 mins by [gamma-33ATP] radiometric assay relative to control.
Mitogen-activated protein kinase 9 (Homo sapiens), sequence (P45984 whole entry, looked up): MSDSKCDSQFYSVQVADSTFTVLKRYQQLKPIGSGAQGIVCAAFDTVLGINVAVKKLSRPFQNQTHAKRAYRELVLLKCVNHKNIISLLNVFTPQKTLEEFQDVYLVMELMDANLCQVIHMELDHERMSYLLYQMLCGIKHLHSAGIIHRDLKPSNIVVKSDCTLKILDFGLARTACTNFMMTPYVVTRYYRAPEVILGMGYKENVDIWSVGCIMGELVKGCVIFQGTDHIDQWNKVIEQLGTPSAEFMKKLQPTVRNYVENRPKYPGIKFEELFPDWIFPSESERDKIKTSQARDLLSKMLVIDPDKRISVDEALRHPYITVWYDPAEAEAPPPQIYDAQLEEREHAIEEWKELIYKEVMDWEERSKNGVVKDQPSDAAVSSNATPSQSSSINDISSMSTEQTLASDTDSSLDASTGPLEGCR
Experiment [12] addresses Hepatocyte growth factor receptor (Homo sapiens) (UniProt P08581). Kind of experiment: Inhibition of recombinant human MET A1209G/V1290L mutant (974 to end residues) assessed as residual activity at 10 uM using KKKGQEEEYVFIE as substrate incubated for 40 mins in presence of [gamma-33ATP by scintillation counting based radiometry assay relative to control.
Experiment [13] concerns the target Tyrosine-protein kinase Yes (Homo sapiens) (UniProt P07947). Kind of experiment: Inhibition of recombinant full-length human Yes assessed as residual activity at 10 uM using poly(Glu, Tyr) 4:1 as substrate incubated for 40 mins in presence of [gamma33P]ATP by scintillation counting based radiometry assay relative to control.
Experiment [14] addresses Receptor-interacting serine/threonine-protein kinase 1 (Homo sapiens) (UniProt Q13546). Kind of experiment: Inhibition of recombinant human RIPK1 (8 to 322 residues) assessed as residual activity at 10 uM using myelin basic protein as substrate incubated for 40 mins in presence of [gamma33P]ATP by scintillation counting based radiometry assay relative to control.
For experiment [15], the target named is SRSF protein kinase 1 (Homo sapiens) (UniProt Q96SB4). Description: Inhibition of recombinant human SRPK1 (2 to end residues) assessed as residual activity at 10 uM using RSRSRSRSRSRSRSR as substrate incubated for 40 mins in presence of [gamma33P]ATP by scintillation counting based radiometry assay relative to control.
SRSF protein kinase 1 (Homo sapiens), sequence (Q96SB4 whole entry): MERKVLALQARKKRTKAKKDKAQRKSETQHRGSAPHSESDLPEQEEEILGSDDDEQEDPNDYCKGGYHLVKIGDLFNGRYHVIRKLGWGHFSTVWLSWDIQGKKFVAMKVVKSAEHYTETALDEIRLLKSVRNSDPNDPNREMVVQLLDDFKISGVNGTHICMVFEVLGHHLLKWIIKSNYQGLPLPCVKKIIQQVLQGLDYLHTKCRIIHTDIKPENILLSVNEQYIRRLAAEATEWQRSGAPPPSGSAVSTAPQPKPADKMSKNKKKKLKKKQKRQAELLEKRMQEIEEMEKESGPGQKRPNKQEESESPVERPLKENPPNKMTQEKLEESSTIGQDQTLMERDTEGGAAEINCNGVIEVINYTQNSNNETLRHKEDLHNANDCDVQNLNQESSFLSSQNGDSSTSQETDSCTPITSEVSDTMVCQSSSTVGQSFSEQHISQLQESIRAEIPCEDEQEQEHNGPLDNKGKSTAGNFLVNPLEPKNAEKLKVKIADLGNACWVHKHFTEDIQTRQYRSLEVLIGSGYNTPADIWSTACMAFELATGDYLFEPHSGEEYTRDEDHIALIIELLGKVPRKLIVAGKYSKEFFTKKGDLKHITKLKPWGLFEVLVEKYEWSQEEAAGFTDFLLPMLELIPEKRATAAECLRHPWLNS
Experiment [16] addresses Testis-specific serine/threonine-protein kinase 2 (Homo sapiens) (UniProt Q96PF2). Description: Inhibition of recombinant full-length human TSSK2 assessed as residual activity at 10 uM using KKKVSRSGLYRSPSMPENLNRPR as substrate incubated for 40 mins in presence of [gamma33P]ATP by scintillation counting based radiometry assay relative to control.
Experiment [17] addresses Protein kinase C iota type (Homo sapiens) (UniProt P41743). Kind of experiment: Inhibition of recombinant full-length human PKCiota assessed as residual activity at 10 uM using ERMRPRKRQGSVRRRV as substrate incubated for 40 mins in presence of [gamma33P]ATP by scintillation counting based radiometry assay relative to control.
Experiment [18] has as its target Ephrin type-A receptor 4 (Homo sapiens) (UniProt P54764). Kind of experiment: Inhibition of recombinant human EphA4 (601 to 892 residues) assessed as residual activity at 10 uM using poly(Glu, Tyr) 4:1 as substrate at 40 mins in presence of [gamma-33ATP] by scintillation counting based radiometry assay relative to control.
For experiment [19], the target named is Ephrin type-B receptor 1 (Homo sapiens) (UniProt P54762). Description: Inhibition of recombinant human EphB1 (564 to end residues) assessed as residual activity at 10 uM using KVEKIGEGTYGVVYK as substrate at 40 mins in presence of [gamma-33ATP] by scintillation counting based radiometry assay relative to control.
Experiment [20] addresses Focal adhesion kinase 1 (Homo sapiens) (UniProt Q05397). Kind of experiment: Inhibition of recombinant human FAK (411 to 686 residues) assessed as residual activity at 10 uM using EEEEYEEEEEEYYIIEEEEEEYEEEEEEYYEEEEEEKKKK as substrate at 40 mins in presence of [gamma-33ATP] by scintillation counting based radiometry assay relative to control.
In experiment [21] the target is Ephrin type-B receptor 4 (Homo sapiens) (UniProt P54760). Description: Inhibition of recombinant human EphB4 (561 to end residues) assessed as residual activity at 10 uM using poly(Glu, Tyr) 4:1 as substrate at 40 mins in presence of [gamma-33ATP] by scintillation counting based radiometry assay relative to control.
Ephrin type-B receptor 4 (Homo sapiens), sequence (P54760 whole entry): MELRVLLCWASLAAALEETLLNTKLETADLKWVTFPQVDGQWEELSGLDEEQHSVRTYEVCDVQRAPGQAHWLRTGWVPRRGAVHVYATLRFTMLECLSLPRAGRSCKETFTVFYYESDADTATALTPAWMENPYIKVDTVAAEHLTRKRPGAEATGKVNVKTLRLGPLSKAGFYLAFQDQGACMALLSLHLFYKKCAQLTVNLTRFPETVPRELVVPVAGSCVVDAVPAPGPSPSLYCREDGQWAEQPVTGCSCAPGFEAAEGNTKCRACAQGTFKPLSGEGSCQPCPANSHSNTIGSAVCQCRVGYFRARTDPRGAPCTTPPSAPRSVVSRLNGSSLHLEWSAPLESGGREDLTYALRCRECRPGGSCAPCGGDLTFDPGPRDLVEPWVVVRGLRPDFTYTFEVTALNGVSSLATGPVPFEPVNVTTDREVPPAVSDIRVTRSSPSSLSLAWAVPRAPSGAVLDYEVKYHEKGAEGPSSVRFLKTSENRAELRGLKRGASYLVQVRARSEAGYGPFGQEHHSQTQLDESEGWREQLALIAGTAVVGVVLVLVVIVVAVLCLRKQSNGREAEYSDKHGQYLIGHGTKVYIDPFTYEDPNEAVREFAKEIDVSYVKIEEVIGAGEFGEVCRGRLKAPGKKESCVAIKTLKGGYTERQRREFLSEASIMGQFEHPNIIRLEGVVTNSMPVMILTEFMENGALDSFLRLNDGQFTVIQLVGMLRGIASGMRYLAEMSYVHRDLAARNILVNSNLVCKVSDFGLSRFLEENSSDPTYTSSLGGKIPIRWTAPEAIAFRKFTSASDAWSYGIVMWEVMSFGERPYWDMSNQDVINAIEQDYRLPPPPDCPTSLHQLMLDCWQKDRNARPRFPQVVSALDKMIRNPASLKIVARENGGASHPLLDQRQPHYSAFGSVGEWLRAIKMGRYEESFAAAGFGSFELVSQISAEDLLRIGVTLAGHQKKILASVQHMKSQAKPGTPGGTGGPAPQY

Protein kinase C iota type (Homo sapiens), sequence (P41743 whole entry, the tested form may be a part): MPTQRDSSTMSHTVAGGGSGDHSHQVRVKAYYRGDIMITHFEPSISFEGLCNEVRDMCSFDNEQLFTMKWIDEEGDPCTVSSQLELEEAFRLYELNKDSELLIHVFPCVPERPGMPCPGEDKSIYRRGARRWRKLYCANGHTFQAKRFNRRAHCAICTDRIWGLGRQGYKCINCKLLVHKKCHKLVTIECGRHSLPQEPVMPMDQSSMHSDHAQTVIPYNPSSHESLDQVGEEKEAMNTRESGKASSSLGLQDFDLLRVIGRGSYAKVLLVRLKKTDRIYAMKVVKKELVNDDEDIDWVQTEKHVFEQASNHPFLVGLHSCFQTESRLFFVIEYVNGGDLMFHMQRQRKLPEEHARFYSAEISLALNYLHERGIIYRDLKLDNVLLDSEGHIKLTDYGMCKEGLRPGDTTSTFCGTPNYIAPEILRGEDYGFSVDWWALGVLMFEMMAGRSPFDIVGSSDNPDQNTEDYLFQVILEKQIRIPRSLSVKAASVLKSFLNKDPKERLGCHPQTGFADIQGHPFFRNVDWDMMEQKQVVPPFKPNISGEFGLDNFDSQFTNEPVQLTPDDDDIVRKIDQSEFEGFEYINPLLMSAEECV
Mitogen-activated protein kinase 1 (Homo sapiens), sequence (P28482 whole entry, the tested form may be a part): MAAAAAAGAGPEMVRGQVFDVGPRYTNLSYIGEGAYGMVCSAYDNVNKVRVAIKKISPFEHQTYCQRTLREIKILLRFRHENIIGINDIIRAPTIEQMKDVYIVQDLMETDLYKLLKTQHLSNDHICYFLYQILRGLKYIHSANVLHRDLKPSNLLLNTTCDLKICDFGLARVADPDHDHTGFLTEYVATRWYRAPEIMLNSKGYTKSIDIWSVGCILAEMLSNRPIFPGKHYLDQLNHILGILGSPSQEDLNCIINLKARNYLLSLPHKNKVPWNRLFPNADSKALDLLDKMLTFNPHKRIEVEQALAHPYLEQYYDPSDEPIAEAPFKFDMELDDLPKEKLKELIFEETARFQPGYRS
Tyrosine-protein kinase Yes (Homo sapiens), sequence (P07947 2-543 limits assumed): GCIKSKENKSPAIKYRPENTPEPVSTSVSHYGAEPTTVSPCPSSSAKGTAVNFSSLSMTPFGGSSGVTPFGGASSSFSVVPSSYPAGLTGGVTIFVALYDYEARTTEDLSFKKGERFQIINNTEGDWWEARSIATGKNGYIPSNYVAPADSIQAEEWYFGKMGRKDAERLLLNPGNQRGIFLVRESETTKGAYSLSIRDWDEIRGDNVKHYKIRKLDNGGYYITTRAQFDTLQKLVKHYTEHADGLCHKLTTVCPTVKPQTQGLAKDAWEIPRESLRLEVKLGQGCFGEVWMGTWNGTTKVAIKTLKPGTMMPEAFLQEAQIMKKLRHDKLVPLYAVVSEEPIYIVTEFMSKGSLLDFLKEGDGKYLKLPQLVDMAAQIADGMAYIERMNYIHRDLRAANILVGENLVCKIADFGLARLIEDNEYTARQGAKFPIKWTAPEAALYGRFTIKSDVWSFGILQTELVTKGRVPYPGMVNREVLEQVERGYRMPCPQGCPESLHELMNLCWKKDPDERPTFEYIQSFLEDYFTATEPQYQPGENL

Regarding `C[C@@H](c1ccccc1)n1nnc2cnc3ccc(-c4cnc5[nH]ccc5c4)cc3c21`, the Activity in experiment [1] amounted to 110%; in experiment [2], 80%; in [3] it was 8%; in experiment [4], 100%; in [5], 34%; in experiment [6], 86%. Further, the Activity in experiment [7] is 53%; in experiment [8], 51%; in experiment [9], 115%; in experiment [10], 54%; in experiment [11] it was 95%; in [12] it was 62%. In addition, the Activity worked out at 3% in [13]; 98% in experiment [14]; 62% in experiment [15]; 63% in [16]; 81% in experiment [17]; 81% in experiment [18]. Further, the values for the Activity in [19], in experiment [20] and in [21] were 152%, 82% and 71%, respectively.
